Converted amounts (≈) assume the structure as drawn. Like-named read-outs stand apart in the source and are kept apart here.
Legend:
VEGFR1 = biological target: T1, VEGFR1 (Homo sapiens, UniProt P17948); test: Kinase inhibition, Mobility Shift Assay/IMAP, VEGFR1; assay type: biochemical
T1 construct: purchased Invitrogen PR6731B
How it was run: (§1)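 Substrate conversion (phosphorylated vs non-phosphorylated) read by mobility shift on Caliper EZ Reader II and converted to % inhibition relative to no-enzyme and DMSO controls. IC50 fitted from % inhibition versus log compound concentration.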

VEGFR3 = biological target: T2, VEGFR3 (Homo sapiens, UniProt P35916); test: Kinase inhibition, Mobility Shift Assay/IMAP, VEGFR3; assay type: biochemical
T2 construct: purchased Invitrogen PV4129
How it was run: as §1

TIE2 = biological target: T3, TIE2 (Homo sapiens, UniProt Q02763); test: Kinase inhibition, Mobility Shift Assay/IMAP, TIE2; assay type: biochemical
T3 construct: purchased BPS 40270
T3 sequence (Q02763 23-1124): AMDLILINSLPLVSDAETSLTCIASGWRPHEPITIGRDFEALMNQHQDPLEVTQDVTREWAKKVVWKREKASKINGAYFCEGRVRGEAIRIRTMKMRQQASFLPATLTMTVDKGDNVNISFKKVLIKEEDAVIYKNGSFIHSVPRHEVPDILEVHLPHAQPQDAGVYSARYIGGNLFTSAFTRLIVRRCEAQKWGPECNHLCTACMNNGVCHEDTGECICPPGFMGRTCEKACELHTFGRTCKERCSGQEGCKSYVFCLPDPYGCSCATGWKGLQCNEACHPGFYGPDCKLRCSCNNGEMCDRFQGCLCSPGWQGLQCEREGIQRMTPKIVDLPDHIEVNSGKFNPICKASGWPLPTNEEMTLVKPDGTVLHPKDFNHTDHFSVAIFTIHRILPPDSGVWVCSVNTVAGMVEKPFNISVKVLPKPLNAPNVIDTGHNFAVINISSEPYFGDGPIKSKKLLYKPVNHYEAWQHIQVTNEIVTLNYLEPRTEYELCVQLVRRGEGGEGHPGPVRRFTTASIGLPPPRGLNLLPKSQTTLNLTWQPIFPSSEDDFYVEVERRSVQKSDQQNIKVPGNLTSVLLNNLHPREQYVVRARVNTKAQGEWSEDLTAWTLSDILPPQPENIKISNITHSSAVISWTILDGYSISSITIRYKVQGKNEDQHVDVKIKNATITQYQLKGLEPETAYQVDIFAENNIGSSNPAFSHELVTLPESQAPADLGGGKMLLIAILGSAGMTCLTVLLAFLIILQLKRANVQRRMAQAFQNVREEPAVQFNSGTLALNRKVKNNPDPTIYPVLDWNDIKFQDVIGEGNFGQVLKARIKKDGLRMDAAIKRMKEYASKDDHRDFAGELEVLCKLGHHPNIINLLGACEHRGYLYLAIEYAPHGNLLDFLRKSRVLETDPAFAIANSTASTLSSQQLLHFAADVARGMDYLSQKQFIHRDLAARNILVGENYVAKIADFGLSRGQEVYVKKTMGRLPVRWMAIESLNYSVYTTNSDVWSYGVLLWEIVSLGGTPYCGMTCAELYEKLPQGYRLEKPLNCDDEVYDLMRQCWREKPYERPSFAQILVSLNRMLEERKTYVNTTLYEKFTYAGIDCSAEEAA
How it was run: as §1

EGFR = biological target: T4, EGFR (Homo sapiens, UniProt P00533); test: Kinase inhibition, Mobility Shift Assay/IMAP, EGFR; assay type: biochemical
T4 construct: purchased Carna 08-115
T4 sequence (P00533 669-1210 limits assumed): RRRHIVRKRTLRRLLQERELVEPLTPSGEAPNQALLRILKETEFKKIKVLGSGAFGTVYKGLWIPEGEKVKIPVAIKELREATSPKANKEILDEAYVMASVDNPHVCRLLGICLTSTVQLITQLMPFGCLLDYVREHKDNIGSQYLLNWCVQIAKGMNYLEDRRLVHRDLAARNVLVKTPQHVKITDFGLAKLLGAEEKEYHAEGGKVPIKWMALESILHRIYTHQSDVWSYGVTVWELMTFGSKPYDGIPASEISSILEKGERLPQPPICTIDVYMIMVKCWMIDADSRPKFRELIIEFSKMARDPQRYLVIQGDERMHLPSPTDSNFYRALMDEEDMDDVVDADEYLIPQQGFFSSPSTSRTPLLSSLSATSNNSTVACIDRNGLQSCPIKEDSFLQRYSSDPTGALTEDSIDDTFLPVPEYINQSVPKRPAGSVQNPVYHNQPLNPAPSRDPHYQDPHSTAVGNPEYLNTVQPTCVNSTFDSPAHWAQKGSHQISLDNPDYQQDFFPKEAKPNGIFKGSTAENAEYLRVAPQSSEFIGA
How it was run: as §1

HUVEC cells = test: Inhibition of VEGF-induced HUVEC cell proliferation, CellTiter Glo; assay type: cell-based; conditions: Homo sapiens, 20 ng/ml VEGF, 72 hours
From the text: In this experiment, human umbilical vein endothelial cells (HUVEC, Lonza) were used. HUVEC cells are primary cells isolated from umbilical veins. This cell line is a model system to study the functions of endothelial cells. Endothelial cell proliferation in response to VEGF is crucial to the pathological angiogenesis associated with conditions such as tumor development and ocular neovascular diseases.
In this assay, a luciferase bioluminescence assay (CellTiter GLU™, Promega) is used to determine the inhibitory activity of the compounds against VEGF-induced HUVEC cell proliferation and viability. CellTiter GLO™ is a homogeneous method for quantifying the count of viable cells in culture based on ATP, an indicator of metabolically active cells. In this assay, the compound was incubated with HUVEC cells for 72 hours, and then the inhibitory activity of the resulting compound against VEGF-induced HUVEC cell proliferation was measured on the En Vision plate reader.
With the RPMI-1640 medium (plus 5% FBS, 1% Penicillin-Streptomycin) used for the HUVEC cell proliferation experiment, add a cell suspension to a 96-well plate at 100 μl per well, i.e., 4000 HUVEC cells/well, and incubate them overnight in a 5% CO2 incubator at 37° C. (serum starvation). After 24 hours, add 96 μl of the experimental medium to the cell wells, and then add 2 μl of the compound to the cell wells; and after 1 hour following the addition of the compound, add 2 μl of 2 μg/ml VEGF to the cell wells. Add 0.1% DMSO and 20 ng/ml VEGF to cell wells to serve as high-reading control wells. Take cell-free wells with only medium as low-reading control wells. […] After 72 hours of incubation of the cell plate in the incubator, hold the cell plate to be tested at room temperature and discard 100 μl of medium per well. Add 100 μl of CTG reagent (CellTiter Glo kit) per well, oscillate the cell plate in a fast oscillator for 3 minutes, and keep the cell plate at room temperature in the dark for 30 minutes. Read the chemiluminescence signal value with the Envision instrument.
X indicates the log value of compound concentration, Y indicates the inhibition rate (% inhibition), Top indicates the readout of the high-reading control well.

[1] = Solubility test in buffer, LC-MS; assay type: physicochemical; conditions: aqueous buffer, thermodynamic from solid, room temperature, shaking 8 h, pH not given (method: pH 2.0, 6.5, 7.4)
How it was run: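 Compound at 2 mg/mL in buffers of pH 2.0, 6.5 and 7.4, sonicated, shaken 8 h at room temperature, then centrifuged at 13,000 rpm. Supernatant quantified by LC-MS against a 3–5 point calibration.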

VEGFR2 [2] = biological target: T5, VEGFR2 (Homo sapiens, UniProt P35968); test: Kinase inhibition, Mobility Shift Assay/IMAP, VEGFR2; assay type: biochemical; design: purchased Carna 08-191
How it was run: as §1
Target sequence in this assay (P35968 790-1356 limits assumed): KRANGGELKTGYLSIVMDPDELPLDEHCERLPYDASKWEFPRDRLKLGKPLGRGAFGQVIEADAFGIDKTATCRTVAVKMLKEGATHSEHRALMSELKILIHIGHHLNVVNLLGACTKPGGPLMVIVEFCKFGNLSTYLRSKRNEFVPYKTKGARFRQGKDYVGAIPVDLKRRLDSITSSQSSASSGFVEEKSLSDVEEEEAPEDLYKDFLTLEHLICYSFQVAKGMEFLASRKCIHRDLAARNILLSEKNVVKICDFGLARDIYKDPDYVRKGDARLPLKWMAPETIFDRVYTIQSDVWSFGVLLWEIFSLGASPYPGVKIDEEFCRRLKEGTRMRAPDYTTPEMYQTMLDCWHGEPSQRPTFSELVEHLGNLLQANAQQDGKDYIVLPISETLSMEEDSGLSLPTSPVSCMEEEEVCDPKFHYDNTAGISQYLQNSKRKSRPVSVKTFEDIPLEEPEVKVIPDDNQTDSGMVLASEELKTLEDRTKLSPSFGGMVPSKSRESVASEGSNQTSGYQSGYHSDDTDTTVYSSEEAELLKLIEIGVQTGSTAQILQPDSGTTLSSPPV

VEGFR2 [3] = biological target: T5, VEGFR2; test: Inhibition of VEGF-induced VEGFR2 autophosphorylation (pVEGFR2) in HUVEC cells, ELISA; assay type: cell-based; design: endogenous in cells; host or cells: HUVEC; conditions: 50 ng/mL human VEGF, compound 1 h
From the text: Vascular endothelial growth factor receptor 2 (VEGFR2) is a primary receptor for VEGF-induced endothelial cell signaling. After ligand binding, VEGFR2 is autophosphorylated and activated. The main function of signaling from VEGFR2 is to induce vascularization during development and after tissue injury, and to bypass blocked blood vessels. Pathologically, VEGF and VEGFR2 are involved in tumor angiogenesis and vascular leakage. They are considered to be main participants in many different cancers and ocular diseases that accompany pathological neovascularization. This assay measured the ability of the compounds to inhibit VEGF-induced VEGFR2 autophosphorylation (pVEGFR2) in HUVEC cells by using ELISA.
Culture cells in a cell culture flask to reach a fusion degree of 60%-80% before cell inoculation. Dilute the cell suspension to […] with a pre-warmed complete medium. Add 80 μL of the cell suspension to all wells of a 96-well cell plate (Corning-3599); and incubate the plate overnight at 37° C. in the presence of 5% CO2. Dissolve the compound powder to 10 mM with DMSO and store it in a nitrogen cabinet. Compound dilution plate: Add a reference compound Ponatinib or a compound to be tested to a 96 V-well plate (Axygen-WIPP 2280) at concentrations achieved as follows: performing 3-fold gradient dilution starting from 5 mM (5 μL of 10 mM compound solution plus 5 μL of DMSO) for a total of 8 concentration points. […] Transfer 20 μL of the diluted compound from the intermediate plate to a cell plate. Then, incubate the cell plate for 1 h at 37° C. in the presence of 5% CO2. After the compound was treated for 1 h, add 25 μL of 250 ng/ml human VEGF at a final concentration of 50 ng/mL to a 96-well plate; and incubate the plate for 5 min at 37° C. in the presence of 5% CO2, centrifuge the plate for 10 min at 3,000 rpm, remove the medium and wash the cells once with 300 μL of pre-chilled DPBS per well. Then, centrifuge the plate for 10 min at 4,000 rpm, remove DPBS, and add 110 μL of pre-chilled 1× cell lysis buffer per well to the 96-well plate. Shake the plate for 40 min at 4° C. Then, freeze the plate in a refrigerator at −80° C. On the next day, remove the plate from the refrigerator at −80° C., thaw the plate, centrifuge the plate for 10 min at 3500 rpm, and add 100 μL of the supernatant per well to an ELISA plate. Seal the plate and incubate it for 2 h at 37° C. Wash the wells 4 times with 1× wash buffer. Add 100 μL of recombinant detection antibody per well. Seal the plate, incubate the plate for 1 h at 37° C., and repeat the step of plate washing. Add 100 μL of secondary antibody per well. Seal the plate, incubate the plate for 30 min at 37° C., and repeat the step of plate washing. Add 100 μL of TMB (protected from light) per well. Seal the plate, incubate the plate for 30 min at 37° C., and add 100 μL of the stop solution per well. Gently shake for 30 sec, measure the absorbance with a SpectraMax® 340 PC 384 Absorbance Microplate Reader within 30 min, and read an optical density value at 450 nm. Conduct data analysis using XL Fit software:
Conduct curve fitting using the 4 Parameter Logistic Model or Sigmoidal Dose-Response Model to obtain IC50 values.
X indicates the log value of compound concentration, Y indicates the inhibition rate (% inhibition), Top indicates the readout of the negative control wells, and Bottom indicates the readout of the positive control well.
Target sequence in this assay (P35968 20-1356): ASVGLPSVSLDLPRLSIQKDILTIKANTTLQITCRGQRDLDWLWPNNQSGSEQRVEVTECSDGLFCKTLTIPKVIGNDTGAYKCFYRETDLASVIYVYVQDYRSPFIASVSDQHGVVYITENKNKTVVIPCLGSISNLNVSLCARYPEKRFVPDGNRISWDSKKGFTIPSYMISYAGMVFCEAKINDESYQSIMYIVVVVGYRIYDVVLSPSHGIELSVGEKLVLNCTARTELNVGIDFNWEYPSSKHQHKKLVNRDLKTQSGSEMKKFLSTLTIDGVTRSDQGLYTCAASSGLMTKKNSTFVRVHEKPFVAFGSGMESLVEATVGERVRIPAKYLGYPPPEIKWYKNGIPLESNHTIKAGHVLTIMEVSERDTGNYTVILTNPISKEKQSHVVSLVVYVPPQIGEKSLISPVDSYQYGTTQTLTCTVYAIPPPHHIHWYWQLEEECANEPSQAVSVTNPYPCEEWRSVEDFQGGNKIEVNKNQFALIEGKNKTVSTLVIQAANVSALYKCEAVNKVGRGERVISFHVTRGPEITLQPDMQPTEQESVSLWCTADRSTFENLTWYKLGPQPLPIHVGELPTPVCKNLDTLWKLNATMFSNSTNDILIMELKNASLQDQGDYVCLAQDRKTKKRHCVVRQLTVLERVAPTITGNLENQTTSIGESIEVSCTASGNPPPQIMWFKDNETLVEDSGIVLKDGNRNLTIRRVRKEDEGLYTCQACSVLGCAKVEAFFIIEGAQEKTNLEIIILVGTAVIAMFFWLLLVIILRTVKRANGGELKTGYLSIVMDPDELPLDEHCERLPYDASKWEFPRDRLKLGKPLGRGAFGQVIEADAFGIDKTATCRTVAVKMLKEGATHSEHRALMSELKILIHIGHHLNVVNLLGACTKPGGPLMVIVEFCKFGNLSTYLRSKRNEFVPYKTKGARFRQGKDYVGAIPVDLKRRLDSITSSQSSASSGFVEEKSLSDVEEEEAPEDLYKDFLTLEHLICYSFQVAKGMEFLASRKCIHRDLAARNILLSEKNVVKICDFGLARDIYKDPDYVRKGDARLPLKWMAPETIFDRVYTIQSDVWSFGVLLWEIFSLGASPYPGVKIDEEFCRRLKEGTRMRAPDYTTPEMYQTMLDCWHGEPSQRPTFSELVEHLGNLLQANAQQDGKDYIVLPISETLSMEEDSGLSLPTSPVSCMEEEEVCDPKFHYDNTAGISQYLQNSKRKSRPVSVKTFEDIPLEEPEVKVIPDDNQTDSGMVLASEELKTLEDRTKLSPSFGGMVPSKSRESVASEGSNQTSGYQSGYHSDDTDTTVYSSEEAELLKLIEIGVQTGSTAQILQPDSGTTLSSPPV

melanin = test: Binding capacity of compounds to melanin; assay type: in vitro ADME, cuttlefish (Sepia officinalis); conditions: cuttlefish (Sepia officinalis), melanin suspension (1 mg/mL); 1 mg/mL melanin in PBS pH 7.4, 2 μM compound, 2 h at 37° C.; read-out: Fu % (percentage of free drug)
How it was run: (§2)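 Compound (2 μM final) incubated with washed Sepia melanin (1 mg/mL, PBS pH 7.4) 2 h at 37° C with shaking; PBS with 0.1% BSA served as blank. Supernatants quantified by LC-MS/MS; bound fraction Fb derived from melanin versus blank concentration.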

[4] = tested on: male black-banded Dutch rabbits
From the text: The binding of the compound to melanin may affect ocular pharmacokinetics after topical administration. […] In such cases, the compound may bind to melanin tissues in the posterior segment (retinal pigment epithelium, choroid) or anterior segment (ciliary body, iris) of the eye.

[5] = rabbit; for MTD on the third day of eye drop administration: eye drops 3 times a day, both eyes; for MTD on the eighth day of eye drop administration: six consecutive days of eye drops, 3 times a day
Description: We used male Dutch black-banded rabbits to assess the MTD of the compounds administered in eye drops.
Male Dutch black-banded rabbits (weighing 1.5 kg to 2.5 kg) were purchased from an eligible supplier.
A total of 8 rabbits animals with good health conditions and normal eyes (without abnormalities such as trauma, congestion, redness and swelling) were randomly divided into 4 groups. […] Eye drop administration was conducted for two consecutive days, 3 times a day, at an interval of 6±0.5 hours. Before administration, the status of the dosing preparation was inspected, and its homogeneity was ensured by means of vortexing, stirring, or shaking. Before each administration, the states of rabbit eyes were observed, including but not limited to eye color, substances around the eyes, conjunctival swelling, eye exudate, discharge, cornea, pupillary reflex, etc. Subsequently, the toxicity risk assessment for six consecutive days of eye drop administration was further conducted. A total of 8 rabbits were randomly divided into 2 groups. […] Eye drop administration was conducted 3 times a day, at an interval of 6±0.5 hours.

[6] = Binding capacity of compounds to melanin; assay type: in vitro ADME, cuttlefish (Sepia officinalis)
How it was run: as §2

[7] = eye drops, male black-banded Dutch rabbits, third day after eye drop administration

T1 sequence (P17948 27-1338): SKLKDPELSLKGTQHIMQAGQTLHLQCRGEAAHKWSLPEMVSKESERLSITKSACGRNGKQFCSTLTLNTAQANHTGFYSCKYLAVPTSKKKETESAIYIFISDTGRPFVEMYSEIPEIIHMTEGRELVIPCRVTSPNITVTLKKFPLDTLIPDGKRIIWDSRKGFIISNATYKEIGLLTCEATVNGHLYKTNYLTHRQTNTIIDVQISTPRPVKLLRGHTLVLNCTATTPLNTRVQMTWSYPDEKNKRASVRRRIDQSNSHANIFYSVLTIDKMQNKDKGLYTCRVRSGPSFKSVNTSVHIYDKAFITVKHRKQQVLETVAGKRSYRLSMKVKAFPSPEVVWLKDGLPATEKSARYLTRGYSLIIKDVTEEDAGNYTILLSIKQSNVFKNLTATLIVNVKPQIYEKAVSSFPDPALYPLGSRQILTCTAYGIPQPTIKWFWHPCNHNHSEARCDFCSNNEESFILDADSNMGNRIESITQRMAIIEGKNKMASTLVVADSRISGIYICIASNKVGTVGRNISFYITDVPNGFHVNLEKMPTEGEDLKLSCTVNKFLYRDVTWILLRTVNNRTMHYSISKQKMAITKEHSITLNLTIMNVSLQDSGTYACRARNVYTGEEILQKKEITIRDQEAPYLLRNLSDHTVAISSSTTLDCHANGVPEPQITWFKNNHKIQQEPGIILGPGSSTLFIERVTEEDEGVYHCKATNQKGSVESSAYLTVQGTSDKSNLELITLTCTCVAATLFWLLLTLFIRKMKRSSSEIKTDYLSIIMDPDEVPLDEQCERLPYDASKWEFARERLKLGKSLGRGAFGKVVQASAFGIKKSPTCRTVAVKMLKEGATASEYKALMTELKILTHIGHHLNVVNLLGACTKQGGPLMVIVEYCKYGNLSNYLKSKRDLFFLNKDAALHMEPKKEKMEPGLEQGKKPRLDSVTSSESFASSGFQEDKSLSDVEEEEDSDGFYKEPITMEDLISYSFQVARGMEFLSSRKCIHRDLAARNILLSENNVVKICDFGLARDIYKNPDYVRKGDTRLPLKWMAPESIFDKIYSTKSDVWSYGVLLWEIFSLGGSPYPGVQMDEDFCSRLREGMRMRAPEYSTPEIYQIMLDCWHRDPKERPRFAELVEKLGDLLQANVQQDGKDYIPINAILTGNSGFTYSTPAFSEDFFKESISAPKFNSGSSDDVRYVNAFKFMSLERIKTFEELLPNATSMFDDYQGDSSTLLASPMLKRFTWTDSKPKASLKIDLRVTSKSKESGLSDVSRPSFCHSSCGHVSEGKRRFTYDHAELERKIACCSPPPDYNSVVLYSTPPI

Compound | IC50 (VEGFR1) [nM] | IC50 (VEGFR3) [nM] | IC50 (EGFR) [nM] | IC50 (VEGFR2 [2]) [nM] | IC50 (VEGFR2 [3]) [nM] | fraction unbound at 2 h, 2 μM (melanin) | IC50 (TIE2) [nM] | IC50 (HUVEC cells) [nM] | solubility at 8 h [1] [µg/mL] | maximum tolerated dose (MTD) [4, 7] [μg/eye] | MTD on the third day of eye drop administration [5] [μg/eye] | MTD on the eighth day of eye drop administration [5] [μg/eye] | Percentage of free drug with respect to melanin, comparison in words [6] | maximum tolerated dose (MTD) ([4]; eye drops to rabbits for six consecutive days) [μg/eye] | Eye observations ([5]; 100 μg/eye, six consecutive days, seventh day)
NC(=O)c1c(OCc2ccc3c(c2)OCC3)nsc1NC(=O)NCCCCN1CCCC1 [Compound T042, 3-((2,3-dihydrobenzofuran-6-yl)methoxy)-5-(3-(4-(pyrrolidin-1-yl)butyl)ureido)isothiazole-4-carboxamide] | 34.3 | 42 | 33000 | 14.2 | 22 | – | 448 | 79.9 | 820 (≈ 1780 µM) | – | – | – | – | – | –
COc1ccc(F)c(COc2nsc(NC(=O)NCCCCN3CCCC3)c2C(N)=O)c1F [Compound T093, 3-((2,6-difluoro-3-methoxybenzyl)oxy)-5-(3-(4-(pyrrolidin-1-yl)butyl)ureido)isothiazole-4-carboxamide] | – | – | 14600 | 12.4 | – | 0.0531 | 181 | 55.8 | – | ≥ 250 | ≥ 250 | ≥ 250 | – | – | –
COc1cc(OC)c(F)c(COc2nsc(NC(=O)NCCC3CCN(CCF)CC3)c2C(N)=O)c1F [Compound T126, 3-[(2,6-difluoro-3,5-dimethoxy-phenyl)methoxy]-5-[2-[1-(2-fluoroethyl)-4-piperidyl]ethylcarbamoylamino]isothiazole-4-carboxamide] | – | – | > 60000 | 2.7 | 27 | 0.0495 | – | 22 | – | – | – | – | – | – | –
NC(=O)c1c(OCc2c(F)cc(Br)cc2F)nsc1NC(=O)NCCCCN1CCCC1 [PAN90806] | – | – | – | – | – | 0.0129 | – | 76.8 | 124 (≈ 234 µM) | 100 | 100 | 50 | lower percentage of free drug | 50 | ocular toxicity (corneal opacity and conjunctival swelling, or corneal edema and conjunctival hyperemia, or ocular discharge) was observed in all the 4 rabbits

Further compounds by falling IC50 (EGFR), results first:

IC50 (VEGFR1) [nM] | IC50 (VEGFR3) [nM] | IC50 (EGFR) [nM] | IC50 (VEGFR2 [2]) [nM] | IC50 (VEGFR2 [3]) [nM] | fraction unbound at 2 h, 2 μM (melanin) | Compound | IC50 (TIE2) [nM] | IC50 (HUVEC cells) [nM] | solubility at 8 h [1] [µg/mL] | maximum tolerated dose (MTD) [4, 7] [μg/eye] | MTD on the third day of eye drop administration [5] [μg/eye] | MTD on the eighth day of eye drop administration [5] [μg/eye] | Percentage of free drug with respect to melanin, comparison in words [6] | maximum tolerated dose (MTD) ([4]; eye drops to rabbits for six consecutive days) [μg/eye] | Eye observations ([5]; 100 μg/eye, six consecutive days, seventh day)
– | – | 18900 | 16.4 | 34.5 | 0.0322 | COc1ccc(F)c(COc2nsc(NC(=O)NCCCCN3CC[C@H](O)C3)c2C(N)=O)c1F [Compound T104, 3-[(2,6-difluoro-3-methoxy-phenyl)methoxy]-5-[4-[(3S)-3-hydroxypyrrolidin-1-yl]butylcarbamoylamino] isothiazole-4-carboxamide] | – | 35.5 | – | – | – | – | – | – | –
– | – | 13400 | 12.8 | 32.5 | 0.0333 | COc1ccc(F)c(COc2nsc(NC(=O)NCCCCN3CC[C@@H](O)C3)c2C(N)=O)c1F [Compound T114, 3-[(2,6-difluoro-3-methoxy-phenyl)methoxy]-5-[4-[(3R)-3-hydroxypyrrolidin-1-yl]butylcarbamoylamino]isothiazole-4-carboxamide] | – | 19 | – | – | – | – | – | – | –
– | – | 11400 | 4.7 | 93 | 0.0469 | CN1CC[C@H](CCNC(=O)Nc2snc(OCc3cc4c(cc3F)CCO4)c2C(N)=O)C1 [Compound T095, 3-[(5-fluoro-2,3-dihydrobenzofuran-6-yl)methoxy]-5-[2-[(3S)-1-methylpyrrolidin-3-yl]ethylcarbamoylamino] isothiazole-4-carboxamide] | – | 55.8 | – | – | – | – | – | – | –

From patent US20260217698A1 (BEYANG THERAPEUTICS CO., LTD., priority 2022, published 2026)
